Measured values taken from PubChem BioAssay AID624167 (Sanford-Burnham Center for Chemical Genomics, 2012).
The source made the active and inactive calls.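 How the source made its calls: active means mean IC50 for reducing PEG3 promoter reporter signal at or below a set limit, with IC50 above the limit in both counter screens; inactive means the rest, including counter screen hits.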

What was measured:
Test in all cases: Peg3 promoter luciferase inhibitors, potency, dose response, cell-based, HeLa, CREF/GAPDH counter-screen panel (AID 624167)
[1] = biological target: PEG-3 (UniProt Q6IN02); conditions: HeLa PEG-Prom luciferase reporter, overnight, CREF/GAPDH counter-screens, mean of runs
[2] = test system: PEG-3; conditions: HeLa PEG-Prom luciferase reporter, overnight, CREF/GAPDH counter-screens
[3] = test system: Rat fibroblasts (CREF); conditions: CREF/GAPDH counter-screens
[4] = run 1, dose range 1, individual replicate IC50 per panel
[5] = run 2, dose range 1, individual replicate IC50 per panel

Sequence of PEG-3 (UniProt Q6IN02) (Q6IN02 whole entry, looked up): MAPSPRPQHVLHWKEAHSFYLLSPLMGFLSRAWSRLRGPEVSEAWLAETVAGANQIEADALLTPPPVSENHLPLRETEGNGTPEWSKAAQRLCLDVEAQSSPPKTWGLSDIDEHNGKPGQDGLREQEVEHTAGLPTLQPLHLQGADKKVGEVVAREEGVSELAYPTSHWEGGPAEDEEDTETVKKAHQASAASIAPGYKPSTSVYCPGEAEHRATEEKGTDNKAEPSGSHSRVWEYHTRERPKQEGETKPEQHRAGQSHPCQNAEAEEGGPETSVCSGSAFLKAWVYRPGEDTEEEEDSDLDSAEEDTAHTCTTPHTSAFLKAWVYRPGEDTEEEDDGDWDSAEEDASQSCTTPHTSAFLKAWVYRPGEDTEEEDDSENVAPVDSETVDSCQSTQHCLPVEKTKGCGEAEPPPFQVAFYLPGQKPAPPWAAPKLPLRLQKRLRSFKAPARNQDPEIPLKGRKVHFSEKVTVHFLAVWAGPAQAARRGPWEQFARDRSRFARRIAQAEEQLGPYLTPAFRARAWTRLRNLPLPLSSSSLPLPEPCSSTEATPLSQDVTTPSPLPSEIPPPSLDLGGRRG

IC50 [1]	Compound	IC50 [2, 4] [µM]	IC50 [2, 5] [µM]	IC50 ([3]; mean of runs) [µM]	IC50 [3, 4] [µM]	IC50 [3, 5] [µM]
1.67 µM	Cc1cc(C)c2c(N)c(C(=O)Nc3ncc(C)s3)sc2n1	1.09	2.26	3.32	2.88	3.76
8.34 µM	O=C(Nc1cccc(C(=O)O)c1)Nc1ccc2c(c1)OCO2	3.5	13.2	17.4	14.2	20.7
1.57 µM	O=C(NC(=O)c1ccccc1)Nc1ccccn1	1.25	1.88	0.751	0.676	0.825
5.19 µM	O=C(N/N=C/c1cccs1)c1n[nH]c2c1CCCC2	3.45	6.93	6	5.1	6.91
1.66 µM	C(=NNc1ccc2ccccc2n1)c1ccccn1	1.21	2.11	1.44	1.33	1.55
8.22 µM	Cc1c([N+](=O)[O-])cc(N2C(=O)C=CC2=O)cc1[N+](=O)[O-]	9.19	7.25	17.2	16.8	17.6
0.535 µM	COc1ccccc1C(=O)Nc1nc2ccccc2[nH]1	0.707	0.362	0.28	0.226	0.335
1.49 µM	C(=Cc1cnc2ccccc2n1)c1ccc2c(c1)OCO2	1.7	1.27	1.12	1.02	1.21
5.09 µM	CCOc1ccc2c(ccc(/C=C/c3cc(C)c4cccnc4c3O)[n+]2C)c1	4.3	5.88	11.8	11.9	11.7
1.88 µM	O=C(NC1=NCCS1)C1COc2ccccc2O1 (stereo not drawn)	1.36	2.39	15.1	14.5	15.7
3.41 µM	CCOc1ccc(C(=O)O/N=C(\N)c2ccccn2)cc1	5.04	1.77	2.25	2.35	2.15
3 µM	Cc1ccc(-n2[nH]c(=O)c(-c3ccccn3)c2C)cc1	2.62	3.38	11.2	7.32	15
15.7 µM	Oc1c(I)cc(Cl)c2cccnc12	7.91	23.5	17.9	15.7	20.2
1.41 µM	Cc1nc2cc(-c3ccccc3)sc2c(=O)n1N	1.49	1.34	3.4	3.94	2.87
inactive	C(=NN1CCCCCC1)c1ccc2ccccc2n1	3.59	> 100	2.58	2.12	3.04
10 µM	CN(C)c1ccc(/C=C/c2ccc3c4ccccc4ccc3[n+]2-c2ccccc2)cc1	10.5	9.52	17.8	16.9	18.7
inactive	CN1CCN(c2ccc(-c3ccc4ccccc4n3)cc2)CC1	7.84	> 100	2.36	2.93	1.79
0.363 µM	Nc1ccc(-c2nc3ccc(C(=O)O)cc3s2)cc1	0.44	0.286	6.03	6.25	5.81
inactive	CN=c1scc(-c2cccs2)n1/N=C/c1ccccc1O	0.26	> 100	5.44	5.28	5.6
3.28 µM	COc1ccc(C(=O)CN2C(=O)c3ccccc3S2(=O)=O)cc1	2.96	3.59	3.15	3.25	3.04
8.69 µM	Cc1cccc(C)c1NC(=O)c1nc(S(=O)(=O)Cc2ccccc2)ncc1Cl	10.1	7.29	14.6	13	16.1
1.23 µM	O=C(Nc1ccc([N+](=O)[O-])cc1)C(=O)Nc1cccc(C(=O)O)c1	1.05	1.4	2.67	2.35	3
inactive	c1ccc(-c2nc(-c3ccccn3)no2)cc1	6.25	> 100	2.98	3.18	2.79

The next lines start with the compound.

Compound	IC50 [1]	IC50 [2, 4] [µM]	IC50 [2, 5] [µM]	IC50 ([3]; mean of runs) [µM]	IC50 [3, 4] [µM]	IC50 [3, 5] [µM]
CC(C)Cc1ccc(C(C)C(N)=NCCc2ccccc2)cc1 (stereo not drawn)	9.7 µM	12.2	7.19	13.3	15	11.6
Oc1c(Br)cc(Br)c2cccnc12	6.72 µM	4.4	9.05	9.01	11.8	6.27
O=C(Nc1nc2cc3c(cc2s1)OCCO3)c1ccco1	1.98 µM	1.75	2.22	1.48	0.766	2.2
CC1CCCN(c2ncnc3c2cnn3-c2ccc(Cl)cc2)C1 (stereo not drawn)	7.2 µM	6	8.4	1.98	1.79	2.17
CCN(CCCl)c1cc(CN(C)C)cc(NC(=O)c2ccc(C(=O)Nc3cc(CN(C)C)cc(N(CC)CCCl)c3)cc2)c1	1.12 µM	1.6	0.642	7.53	14.3	0.8
Cc1nn(-c2nc3ccccc3[nH]2)c(=O)c2ccccc12	0.491 µM	0.51	0.471	0.331	0.351	0.311
Cc1cnc(NC(=O)c2ccc3c(c2)OCCO3)s1	inactive	0.647	> 100	0.454	0.378	0.53
O=C1CCCCC1Sc1nnc(-c2ccc3c(c2)OCO3)o1 (stereo not drawn)	1.7 µM	1.69	1.71	7.83	8.19	7.46
CCOC(=O)c1cnc(Nc2nc3ccccc3o2)nc1C	1.75 µM	1.17	2.33	1.32	1.27	1.37
N=c1n(CCN2CCCCC2)c2ccccc2n1CC(O)c1ccc(Cl)c(Cl)c1 (stereo not drawn)	9.46 µM	10.1	8.8	14.2	13.6	14.8
O=C(OCC(F)(F)F)c1cccc(COc2ccc3ccccc3c2)c1	1.27 µM	1.14	1.4	16.1	14.9	17.3
Cc1ccc(C(=O)Nc2ncc([N+](=O)[O-])s2)cc1	2.73 µM	2.01	3.45	8.85	5.94	11.8
CN(C)c1ccc(/C=C/c2ccc3ccccc3n2)cc1	3.29 µM	2.09	4.48	2.69	2.15	3.22
O=C(O)c1cccc(COc2ccccc2Cl)c1	1.83 µM	0.679	2.97	20.2	38.8	1.55
COc1ccc(/C=N/Nc2nncc3ccccc23)cc1	6.52 µM	4.62	8.43	0.835	0.957	0.712
CCOC(=O)Cc1csc(NC(=S)NC(=O)c2ccc(Cl)cc2)n1	5.62 µM	7.55	3.68	4.97	4.16	5.77
Fc1ccc(-c2nnc(NC3=NCCCCC3)o2)cc1	4.06 µM	4.11	4	3.58	3.94	3.23
O=C1C(Cl)=C(Nc2ccccc2)C(=O)c2ccccc21	7.18 µM	12.5	1.9	7.13	4.48	9.78
C(=N\Nc1nc2ccccc2[nH]1)/c1ccccn1	4.06 µM	4.26	3.87	1.48	1.14	1.83
O=C(/C=C\Nc1ccc2c(c1)OCO2)c1ccccn1	1.51 µM	1.15	1.87	1.09	1.04	1.14
CN=c1scc(-c2ccccc2F)n1/N=C/c1ccc[nH]1	inactive	4.9	> 100	4.52	4.41	4.63
OCCNc1c2ccccc2nc2ccccc12	8.99 µM	10.2	7.76	0.77	> 80	0.77
COc1ccc(/C=C/c2nc3ccccc3n2C)cc1	1.91 µM	1.28	2.54	3.46	3.41	3.51
C=CCn1c(C)cc(C2=NNC(=NCC)SC2)c1C	2.37 µM	3.02	1.72	1.72	1.49	1.95
COc1cc(/C=N/O)ccc1OCc1ccc(C(=O)O)cc1	1.61 µM	1.71	1.51	9.43	10.1	8.8
